Measurements taken from patent publication US9708323B2, “Tricyclic compounds as alpha-7 nicotinic acetylcholine receptor ligands” (BRISTOL-MYERS SQUIBB COMPANY, priority 2014, dated 2017).
Read-outs that look alike come from different tables or passages of the source.

Biological target: T1, α-7 nicotinic ACh receptor ion channel expressed in HEK 293 cells (Rattus norvegicus, UniProt Q05941)
T1 construct: expressed in transfected cells
Experiment: Ca2+-sensitive, fluorescence-based assay for α-7 nicotinic acetylcholine receptor channel function in mammalian cells (FLIPR)
Format: cell-based
Conditions: read-out: FLIPR α7 (EC50)
Method: II) A Ca^2+-Sensitive, Fluorescence-Based Assay α-7 for Nicotinic Acetylcholine Receptor Channel Function in Mammalian Cells (“FLIPR”). Summary:
Lead compounds are evaluated for agonist activity at α-7, α3β4, α4αβ2, and α1β1δ1ε sub-types of nicotinic ACh receptor ion channels expressed in mammalian HEK 293 cells. Agonist potency and efficacy values are determined from kinetic fluorescence Ca^2+ influx measurements made using a 384 well FLIPR (Fluorescence Image Plate Reader). The utility of fluorescent indicators for measuring changes in intracellular divalent cation concentrations, particularly Ca^2+, for drug discovery endeavors is well documented (Rudiger, R., et al., Nature Reviews, 2003, 4:579-586; Gonzalez J. E., et al., Receptors and Channels, 2002, 8:283-295). In this assay, channel expressing HEK cell lines seeded in 384 well assay plates are loaded with a membrane permeant fluorescent Ca^2+ indicator dye, whose 510 nm green emission signal increases in response to elevation of intracellular Ca^2+ concentration. The basal fluorescence from the cells is monitored in real time, followed by the acute addition of test compounds. If the compound is an agonist at any of the non-selective cation channels, the latter open and allow the movement of extracellular Ca^2+ ions into the cell cytoplasm, where they bind to the Ca^2+ indicator dye, and produce an increase in fluorescence output signal, which is detected by a cooled CCD imaging camera.
Reagents: The acetomethoxy (AM) ester of the Ca^2+ indicator dye Fluo-4 was obtained from InVitrogen, (Carlsbad, Calif.). Acetylcholine and all buffer constituents were purchased from Sigma Chemical Company, St. Louis, Mo. G418 and Minimal Essential Medium were purchased from InVitrogen Life Technologies, Carlsbad, Calif. Fetal bovine serum was purchased from (InVitrogen, Carlsbad, Calif.).
HEK-293 cells were grown in Minimal Essential Medium containing 10% (v/v) fetal bovine serum at 37° C. in a 5% CO2 incubator. HEK-293 cells stably expressing the ion channels were grown in the same medium with the addition of 500 μg/ml G418.
HEK-293 cells expressing the ion channels of interest were plated in 384 well, black-walled, clear-bottomed, poly-D-lysine coated plates at a density of ˜20,000 cells/well in 20 μl of Minimal Essential Medium containing 10% (v/v) fetal bovine serum and incubated for 2 days at 29° C. in a 5% CO2 incubator. Prior to assay, cells were loaded with the Fluo-4 AM ester. Cell loading was accomplished by removing the culture medium and replacing it with 30 μl/well of the AM ester of the dye (5 μM) mixed with Hanks Balanced Salt Solution (#14175-095) containing 20 mM HEPES, 2.5 mM probenecid, 0.5 mM CaCl2, 1 mM MgCl2 and 10 μM atropine. Dye loading was allowed to proceed for 90 minutes at room temperature at which time the dye loading solution was removed and replaced with 40 μl/well of Hanks buffer. Cells loaded with dye were loaded onto a FLIPR384 (Molecular Devices, Sunnyvale, Calif.). Fluo-4 dye was excited using the 488 nm line of an argon laser. Emission was filtered using a 540+/−30 nm bandpass filter. For evaluation of the effects of test compounds using the Ca^2+ flux assay, compounds to be tested were provided in assay ready plates. For nicotinic receptor ion channel expressing cells, the assay was initiated by the addition of 20 μl/well of Hanks buffer containing test compounds. For all assays, data were collected at 1 Hz for 10 seconds (baseline), at which time the compound containing stimulus buffers are added, and further measurements collected at 0.33 Hz for 3 min.
The statistical robustness of the nicotinic receptor Ca^2+ flux assays is determined from blanks and totals wells. The totals wells define maximal channel activation for each compound test plate (Maximum efficacious dose of acetylcholine), and the blanks wells which contain matched DMSO only, define zero channel activation. […]

T1 sequence (Q05941 23-502): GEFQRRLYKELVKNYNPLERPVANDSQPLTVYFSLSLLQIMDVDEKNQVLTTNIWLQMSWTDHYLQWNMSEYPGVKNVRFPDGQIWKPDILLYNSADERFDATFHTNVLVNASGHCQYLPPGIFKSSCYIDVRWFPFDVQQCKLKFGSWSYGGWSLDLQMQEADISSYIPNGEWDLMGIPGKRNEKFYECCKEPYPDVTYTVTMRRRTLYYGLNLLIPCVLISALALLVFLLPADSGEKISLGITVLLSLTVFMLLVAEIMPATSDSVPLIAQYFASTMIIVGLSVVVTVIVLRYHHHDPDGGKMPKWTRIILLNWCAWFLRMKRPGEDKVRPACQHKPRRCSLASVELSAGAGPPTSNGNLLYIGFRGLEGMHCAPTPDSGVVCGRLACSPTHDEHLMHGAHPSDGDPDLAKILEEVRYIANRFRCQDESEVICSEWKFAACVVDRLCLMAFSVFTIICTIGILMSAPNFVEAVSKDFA

| Structure (SMILES) | EC50 (Table 3, agonist Ca2+ flux) [µM] | EC50 (Table 2, agonist Ca2+ flux) [µM] |
| --- | --- | --- |
| O=C(c1cc2ccccc2s1)N1C[C@@H]2C[N@@]3CC[C@@H]2[C@@H]1C3 [Example 100, benzo[b]thiophen-2-yl((3S,3aS,6R,7aR)-hexahydro-3,6-methanopyrrolo[2,3-c]pyridin-1(2H)-yl)methanone] | 11 | – |
| O=C(c1nsc2ccccc12)N1C[C@H]2C[N@]3CC[C@H]2[C@H]1C3 [Example 97, benzo[d]isothiazol-3-yl((3R,3aR,6S,7aS)-hexahydro-3,6-methanopyrrolo[2,3-c]pyridin-1(2H)-yl)methanone] | – | 30 |
| Cn1nc(C(=O)N2C[C@H]3C[N@]4CC[C@H]3[C@H]2C4)c2ccccc21 [Example 90, ((3R,3aR,6S,7aS)-hexahydro-3,6-methanopyrrolo[2,3-c]pyridin-1(2H)-yl) (1-methyl-1H-indazol-3-yl)methanone] | – | > 100 |
